Experimental data taken from ChEMBL document CHEMBL5465560, “Selectivity Literature for EUbOPEN Chemogenomic Library” (2024).

Experiments:
[1] = target: Mitogen-activated protein kinase 4 (Homo sapiens) (UniProt P31152); conditions: at 10 µM
[2] = target: Protein arginine N-methyltransferase 3 (Homo sapiens, UniProt O60678); assay: Selectivity interaction (Methyltransferase screen (Scintillation proximity assays)) EUB0000255b PRMT3
[3] = target: T1, Protein kinase C epsilon type (Homo sapiens) (UniProt Q02156); assay: Selectivity interaction (KinomeScan (DiscoverX)) EUB0001079a PRKCE; conditions: at 1 µM
T1 sequence (whole entry): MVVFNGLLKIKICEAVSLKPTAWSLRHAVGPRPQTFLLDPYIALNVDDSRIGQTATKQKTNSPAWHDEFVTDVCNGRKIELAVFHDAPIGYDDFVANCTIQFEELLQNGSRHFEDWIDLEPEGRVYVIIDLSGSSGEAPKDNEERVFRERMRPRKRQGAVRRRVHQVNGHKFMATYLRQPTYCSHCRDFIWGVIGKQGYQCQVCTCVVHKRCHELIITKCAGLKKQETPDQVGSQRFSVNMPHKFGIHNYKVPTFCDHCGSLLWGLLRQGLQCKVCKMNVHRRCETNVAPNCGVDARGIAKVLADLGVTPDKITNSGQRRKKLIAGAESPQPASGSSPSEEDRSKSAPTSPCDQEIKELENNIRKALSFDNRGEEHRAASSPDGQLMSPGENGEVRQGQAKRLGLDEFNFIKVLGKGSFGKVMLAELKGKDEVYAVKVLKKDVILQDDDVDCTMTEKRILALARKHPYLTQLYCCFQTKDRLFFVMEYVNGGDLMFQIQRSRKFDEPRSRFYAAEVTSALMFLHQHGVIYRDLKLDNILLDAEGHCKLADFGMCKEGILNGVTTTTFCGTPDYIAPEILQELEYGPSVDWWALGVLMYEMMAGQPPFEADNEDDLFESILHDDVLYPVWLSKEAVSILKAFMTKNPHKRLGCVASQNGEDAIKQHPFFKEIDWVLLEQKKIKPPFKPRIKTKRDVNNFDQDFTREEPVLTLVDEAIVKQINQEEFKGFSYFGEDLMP

[4] = target: Serine/threonine-protein kinase 38 (Homo sapiens) (UniProt Q15208); assay: Selectivity interaction (KinomeScan (DiscoverX)) EUB0000666a STK38; conditions: at 10 µM
Sequence of Serine/threonine-protein kinase 38 (Homo sapiens) (Q15208 2-465 limits assumed): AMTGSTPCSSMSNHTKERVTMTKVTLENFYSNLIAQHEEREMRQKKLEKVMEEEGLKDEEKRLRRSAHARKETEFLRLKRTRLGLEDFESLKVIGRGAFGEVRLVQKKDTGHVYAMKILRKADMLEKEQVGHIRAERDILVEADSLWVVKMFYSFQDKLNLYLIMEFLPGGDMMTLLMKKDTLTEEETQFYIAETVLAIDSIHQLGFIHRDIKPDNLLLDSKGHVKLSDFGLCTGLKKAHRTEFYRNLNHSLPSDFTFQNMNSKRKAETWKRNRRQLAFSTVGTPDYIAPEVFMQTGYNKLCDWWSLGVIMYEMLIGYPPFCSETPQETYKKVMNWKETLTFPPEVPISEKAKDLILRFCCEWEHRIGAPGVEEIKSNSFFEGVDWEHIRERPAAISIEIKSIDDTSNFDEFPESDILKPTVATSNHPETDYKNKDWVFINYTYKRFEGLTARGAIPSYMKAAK

[5] = target: T2, Serine/threonine-protein kinase RIO3 (Homo sapiens) (UniProt O14730); assay: Selectivity interaction (KinomeScan (DiscoverX)) EUB0001868a RIOK3; conditions: at 1 µM
T2 sequence (whole entry): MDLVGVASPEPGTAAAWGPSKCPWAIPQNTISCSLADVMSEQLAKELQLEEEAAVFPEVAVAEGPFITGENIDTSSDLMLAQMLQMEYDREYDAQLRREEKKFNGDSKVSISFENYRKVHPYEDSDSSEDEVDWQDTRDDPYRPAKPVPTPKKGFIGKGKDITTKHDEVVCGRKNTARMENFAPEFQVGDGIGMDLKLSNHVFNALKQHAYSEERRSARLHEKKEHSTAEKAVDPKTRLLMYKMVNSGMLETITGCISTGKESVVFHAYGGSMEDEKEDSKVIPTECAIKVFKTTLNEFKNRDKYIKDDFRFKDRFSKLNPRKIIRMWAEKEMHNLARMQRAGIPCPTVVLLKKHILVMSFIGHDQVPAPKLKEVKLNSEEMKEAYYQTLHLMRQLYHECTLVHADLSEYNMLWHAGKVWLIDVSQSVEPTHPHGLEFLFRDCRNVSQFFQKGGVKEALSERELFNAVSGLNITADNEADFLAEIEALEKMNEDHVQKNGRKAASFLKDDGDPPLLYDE

[6] = target: Bone morphogenetic protein receptor type-1B (Homo sapiens, UniProt O00238); conditions: at 10 µM
Sequence of Bone morphogenetic protein receptor type-1B (O00238 whole entry): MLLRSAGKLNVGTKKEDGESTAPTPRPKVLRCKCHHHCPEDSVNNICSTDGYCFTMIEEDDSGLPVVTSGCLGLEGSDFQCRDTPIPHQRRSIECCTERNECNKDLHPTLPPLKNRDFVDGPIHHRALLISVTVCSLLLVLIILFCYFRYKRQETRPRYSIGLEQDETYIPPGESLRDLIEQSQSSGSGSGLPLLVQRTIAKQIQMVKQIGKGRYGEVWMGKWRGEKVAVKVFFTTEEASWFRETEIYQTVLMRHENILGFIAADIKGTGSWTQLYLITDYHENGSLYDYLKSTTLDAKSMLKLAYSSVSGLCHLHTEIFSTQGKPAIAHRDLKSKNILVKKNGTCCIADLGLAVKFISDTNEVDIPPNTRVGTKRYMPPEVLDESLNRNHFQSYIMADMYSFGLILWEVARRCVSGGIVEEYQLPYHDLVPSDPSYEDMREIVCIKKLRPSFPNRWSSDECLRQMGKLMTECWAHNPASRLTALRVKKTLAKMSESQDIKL

[7] = target: Interleukin-1 receptor-associated kinase 1 (Homo sapiens) (UniProt P51617); assay: Selectivity interaction (Adapta Assay) EUB0001632a IRAK1; conditions: at 10 µM
Sequence of Interleukin-1 receptor-associated kinase 1 (Homo sapiens) (P51617 whole entry, looked up): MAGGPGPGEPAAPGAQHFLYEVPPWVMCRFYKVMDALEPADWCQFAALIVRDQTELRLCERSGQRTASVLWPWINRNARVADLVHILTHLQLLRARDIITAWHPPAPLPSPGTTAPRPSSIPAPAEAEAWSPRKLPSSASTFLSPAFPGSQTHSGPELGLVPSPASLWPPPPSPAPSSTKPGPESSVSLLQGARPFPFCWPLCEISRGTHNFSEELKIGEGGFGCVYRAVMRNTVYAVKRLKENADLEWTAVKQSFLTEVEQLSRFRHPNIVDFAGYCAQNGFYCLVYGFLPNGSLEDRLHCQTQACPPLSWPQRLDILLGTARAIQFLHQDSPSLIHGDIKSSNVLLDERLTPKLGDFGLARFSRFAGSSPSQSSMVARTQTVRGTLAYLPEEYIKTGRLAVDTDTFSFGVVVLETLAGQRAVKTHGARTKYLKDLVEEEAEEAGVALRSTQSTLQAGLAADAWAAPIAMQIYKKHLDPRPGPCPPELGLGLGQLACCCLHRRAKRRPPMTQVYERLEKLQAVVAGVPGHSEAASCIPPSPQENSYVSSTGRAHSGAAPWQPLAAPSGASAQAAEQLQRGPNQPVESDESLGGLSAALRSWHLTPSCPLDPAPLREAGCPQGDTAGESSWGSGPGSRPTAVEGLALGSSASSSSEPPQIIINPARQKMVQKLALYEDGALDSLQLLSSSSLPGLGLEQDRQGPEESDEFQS

[8] = target: T3, MAP/microtubule affinity-regulating kinase 4 (Homo sapiens) (UniProt Q96L34); assay: Selectivity interaction (ActivX KiNativ screen (kinase selectivity in THP-1 cell lysates)) EUB0000639a MARK4; type: subcellular; conditions: lysate, at 1 µM
T3 sequence (whole entry): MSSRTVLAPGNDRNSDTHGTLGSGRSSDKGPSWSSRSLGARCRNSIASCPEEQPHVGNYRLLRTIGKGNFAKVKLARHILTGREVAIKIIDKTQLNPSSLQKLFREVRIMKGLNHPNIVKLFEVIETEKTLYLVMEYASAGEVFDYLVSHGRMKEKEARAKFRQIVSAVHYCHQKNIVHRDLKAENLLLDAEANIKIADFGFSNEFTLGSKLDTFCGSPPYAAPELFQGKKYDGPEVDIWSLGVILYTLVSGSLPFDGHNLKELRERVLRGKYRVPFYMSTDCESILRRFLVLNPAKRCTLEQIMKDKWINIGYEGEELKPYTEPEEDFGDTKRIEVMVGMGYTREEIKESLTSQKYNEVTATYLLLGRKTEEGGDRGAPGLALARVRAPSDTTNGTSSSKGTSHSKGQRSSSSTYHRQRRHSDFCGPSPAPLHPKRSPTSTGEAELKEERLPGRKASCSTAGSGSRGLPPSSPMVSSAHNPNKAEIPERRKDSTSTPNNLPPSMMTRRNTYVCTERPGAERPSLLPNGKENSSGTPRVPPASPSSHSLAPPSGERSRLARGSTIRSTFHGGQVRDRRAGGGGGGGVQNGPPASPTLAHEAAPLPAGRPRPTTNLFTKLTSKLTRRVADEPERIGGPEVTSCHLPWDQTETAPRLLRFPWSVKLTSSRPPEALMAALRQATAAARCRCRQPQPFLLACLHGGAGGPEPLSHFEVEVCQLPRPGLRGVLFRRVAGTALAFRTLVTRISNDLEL

[9] = target: Serine/threonine-protein kinase PAK 2 (Homo sapiens) (UniProt Q13177); assay: Selectivity interaction (Kinase panel (Invitrogen)) EUB0000639a PAK2; conditions: at 200 nM
Sequence of Serine/threonine-protein kinase PAK 2 (Homo sapiens) (Q13177 whole entry): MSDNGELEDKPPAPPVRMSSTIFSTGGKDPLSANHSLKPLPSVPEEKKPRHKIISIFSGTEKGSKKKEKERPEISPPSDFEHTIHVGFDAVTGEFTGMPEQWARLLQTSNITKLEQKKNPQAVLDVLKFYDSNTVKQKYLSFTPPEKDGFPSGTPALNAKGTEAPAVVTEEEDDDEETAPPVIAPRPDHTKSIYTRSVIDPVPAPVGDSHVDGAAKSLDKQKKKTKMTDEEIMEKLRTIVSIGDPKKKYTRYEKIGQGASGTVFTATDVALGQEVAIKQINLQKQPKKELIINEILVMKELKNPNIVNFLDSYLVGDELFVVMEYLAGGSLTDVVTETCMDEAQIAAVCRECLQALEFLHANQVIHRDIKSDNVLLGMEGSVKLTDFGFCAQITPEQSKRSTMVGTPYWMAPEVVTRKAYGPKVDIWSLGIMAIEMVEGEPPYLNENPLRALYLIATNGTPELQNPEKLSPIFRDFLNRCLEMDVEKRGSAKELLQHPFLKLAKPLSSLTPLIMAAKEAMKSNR

Sequence of Protein arginine N-methyltransferase 3 (O60678 2-531 limits assumed): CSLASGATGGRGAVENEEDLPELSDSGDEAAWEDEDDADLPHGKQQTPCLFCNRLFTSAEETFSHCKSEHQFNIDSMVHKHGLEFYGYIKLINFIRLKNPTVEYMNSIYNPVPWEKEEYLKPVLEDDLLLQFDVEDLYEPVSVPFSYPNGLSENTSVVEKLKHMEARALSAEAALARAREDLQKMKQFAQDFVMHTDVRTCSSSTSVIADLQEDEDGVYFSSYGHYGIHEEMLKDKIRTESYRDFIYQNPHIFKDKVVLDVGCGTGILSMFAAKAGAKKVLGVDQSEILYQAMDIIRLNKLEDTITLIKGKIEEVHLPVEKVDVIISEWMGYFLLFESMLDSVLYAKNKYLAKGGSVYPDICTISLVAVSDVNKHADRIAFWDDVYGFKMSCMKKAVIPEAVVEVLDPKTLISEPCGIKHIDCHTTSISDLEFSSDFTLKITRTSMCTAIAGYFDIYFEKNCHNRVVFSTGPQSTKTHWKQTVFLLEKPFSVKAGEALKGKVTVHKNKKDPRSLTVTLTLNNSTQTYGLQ
Sequence of Mitogen-activated protein kinase 4 (Homo sapiens) (P31152 whole entry): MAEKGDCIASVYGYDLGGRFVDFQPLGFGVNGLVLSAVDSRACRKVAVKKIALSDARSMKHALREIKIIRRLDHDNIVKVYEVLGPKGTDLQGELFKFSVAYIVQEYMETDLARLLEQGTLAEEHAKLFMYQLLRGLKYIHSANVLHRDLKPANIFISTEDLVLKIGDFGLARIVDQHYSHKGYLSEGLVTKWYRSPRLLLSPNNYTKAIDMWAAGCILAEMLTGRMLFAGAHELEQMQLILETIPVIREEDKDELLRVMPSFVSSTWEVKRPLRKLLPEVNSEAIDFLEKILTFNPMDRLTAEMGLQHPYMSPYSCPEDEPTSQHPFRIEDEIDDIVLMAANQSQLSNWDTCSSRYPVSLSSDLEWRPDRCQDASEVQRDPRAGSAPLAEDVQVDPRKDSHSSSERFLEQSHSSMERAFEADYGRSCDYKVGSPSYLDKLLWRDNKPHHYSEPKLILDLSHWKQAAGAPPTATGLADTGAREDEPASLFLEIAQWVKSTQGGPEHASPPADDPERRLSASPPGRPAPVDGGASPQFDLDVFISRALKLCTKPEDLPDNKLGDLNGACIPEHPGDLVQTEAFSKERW

Molecule `CCN(CC)CCCCNc1ncc2cc(-c3cc(OC)cc(OC)c3)c(NC(=O)NC(C)(C)C)nc2n1` has a % of control [1] of 100%.

`COCCN1CCC(c2cc(CN(C)C(=O)c3cccc(Oc4ccccc4)c3)ccn2)CC1` was tested, and the % activity ([2]; at 1 µM) was > 95% and the % activity ([2]; at 10 µM) was > 90%.

`Nc1cnc(N2CCc3cc(S(=O)(=O)Nc4c(F)cc(Cl)cc4F)cc(N4CCCC4=O)c32)nc1` [TP-020n] gave a % of control [3] of 100%.

`O=C(NOC[C@H](O)CO)c1ccc(F)c(F)c1Nc1ccc(I)cc1F` gave a % of control [4] of 100%.

`Cc1cc(-c2ccnc(Nc3cnn(C)c3)n2)ccc1CNC(=O)N1CC(OC(C)C)C1` was tested, and the % of control [5] was 19%.

`Cc1cc([C@@H](C)Nc2ccccc2C(=O)O)c2nc(N3CCOCC3)cc(=O)n2c1` [AZD-6482] showed a % of control [6] of 97%.

Work on `Cn1cc(-n2cnc3c(NCc4nc5cc(Cl)c(Cl)cc5[nH]4)nc(N4CCOCC4)nc32)cn1` yielded a % of inhibition [7] of -6.48%.

Molecule `CC[C@@H]1[C@H](F)C(=O)N[C@@H]1COc1nccc2cc(C(N)=O)c(OC)cc12` [ZIMLOVISERTIB] has a % of inhibition [8] of 17.1% and a % of inhibition [9] of 3.6%.
